Our source for the ED50 and ED90 values is ChEMBL document CHEMBL3045589, “Aromatic amino analogues of artemisinin: synthesis and in vivo antimalarial activity” (2010).

The subject of the experiment is Plasmodium yoelii nigeriensis. In words: Antimalarial activity against Plasmodium yoelii nigeriensis infected in po-dosed Swiss albino mouse assessed as inhibition of parasite growth administered qd for 4 days. Type of experiment: functional. The following applies: 96 h.
Take `CCN(CC)Cc1cc(NC2O[C@@H]3O[C@@]4(C)CC[C@H]5[C@H](C)CC[C@H]([C@@]35OO4)[C@]2(C)Br)ccc1O` (stereo not given in full): the ED50 worked out at 12.3 mg/kg and the ED90 amounted to 24.2 mg/kg.

Consider `C[C@@H]1CC[C@@H]2[C@]34OO[C@](C)(CC[C@@H]13)O[C@H]4OC(Nc1ccc(O)c(CN3CCCCC3)c1)[C@@]2(C)Br` (stereo not given in full), for which the ED50 came out at 11.3 mg/kg and the ED90 was determined as 23.1 mg/kg.

`C[C@@H]1CC[C@@H]2[C@]34OO[C@](C)(CC[C@@H]13)O[C@H]4OC(Nc1ccc(O)c(CN3CCNCC3)c1)[C@@]2(C)Br` (stereo not given in full): the ED50 turned out to be 12.4 mg/kg and the ED90 is 24.6 mg/kg.

Turning to `C[C@@H]1CC[C@@H]2[C@]34OO[C@](C)(CC[C@@H]13)O[C@H]4OC(Nc1ccc(O)c(CN3CCN(C)CC3)c1)[C@@]2(C)Br` (stereo not given in full), the ED50 is 9.9 mg/kg and the ED90 came to 17.4 mg/kg.

Regarding `CCN1CCN(Cc2cc(NC3O[C@@H]4O[C@@]5(C)CC[C@H]6[C@H](C)CC[C@H]([C@@]46OO5)[C@]3(C)Br)ccc2O)CC1` (stereo not given in full), the ED50 amounted to 9.83 mg/kg and the ED90 stood at 16.6 mg/kg.

For the compound `C[C@@H]1CC[C@@H]2[C@]34OO[C@](C)(CC[C@@H]13)O[C@H]4OC(Nc1ccc(O)c(CN3CCN(c4ccccc4)CC3)c1)[C@@]2(C)Br` (stereo not given in full), the ED50 stood at 5.41 mg/kg and the ED90 is 8.72 mg/kg.

Consider `C[C@@H]1CC[C@@H]2[C@]34OO[C@](C)(CC[C@@H]13)O[C@H]4OC(Nc1ccc(O)c(CN3CCN(c4cccc(C(F)(F)F)c4)CC3)c1)[C@@]2(C)Br` (stereo not given in full), for which the ED50 was 6.01 mg/kg and the ED90 came to 9.28 mg/kg.

Take `C[C@@H]1CC[C@@H]2[C@]34OO[C@](C)(CC[C@@H]13)O[C@H]4OC(Nc1ccc(O)c(CN3CCN(c4ccccn4)CC3)c1)[C@@]2(C)Br` (stereo not given in full): the ED50 came out at 7.9 mg/kg and the ED90 was 12.2 mg/kg.

Regarding `C[C@@H]1CC[C@@H]2[C@]34OO[C@](C)(CC[C@@H]13)O[C@H]4OC(Nc1ccc(O)c(CN3CCN(Cc4ccccc4)CC3)c1)[C@@]2(C)Br` (stereo not given in full), the ED50 turned out to be 7.12 mg/kg and the ED90 came out at 12.1 mg/kg.

Regarding `C[C@@H]1CC[C@H]2[C@@H](C)C(=O)O[C@@H]3O[C@@]4(C)CC[C@@H]1[C@]32OO4` [ARTEMISININ], the ED50 was found to be 16.4 mg/kg and the ED90 came out at 27.1 mg/kg.

What is called ED50 is the dose that gives a 50% effect, or the effect in half of the subjects.
